Test results: US20260001849A1, “NOVEL B0AT1 INHIBITOR” (MITSUBISHI TANABE PHARMA CORPORATION, priority 2023, published 2026)

Columns and labels:
Human BOAT1 = target: T1, Human BOAT1 (Homo sapiens, UniProt Q695T7); assay: hBOAT1 inhibitory test (phenylalanine uptake); type: cell-based; details: Human BOAT1 stable expression CHO cells; [3H]-L-phenylalanine uptake, phenylalanine 0.25 mM; radioactivity after 100 to 200 min; read-out: hB0AT1 IC50
T1 construct: expressed in transfected cells
T1 sequence (Q695T7 1-634): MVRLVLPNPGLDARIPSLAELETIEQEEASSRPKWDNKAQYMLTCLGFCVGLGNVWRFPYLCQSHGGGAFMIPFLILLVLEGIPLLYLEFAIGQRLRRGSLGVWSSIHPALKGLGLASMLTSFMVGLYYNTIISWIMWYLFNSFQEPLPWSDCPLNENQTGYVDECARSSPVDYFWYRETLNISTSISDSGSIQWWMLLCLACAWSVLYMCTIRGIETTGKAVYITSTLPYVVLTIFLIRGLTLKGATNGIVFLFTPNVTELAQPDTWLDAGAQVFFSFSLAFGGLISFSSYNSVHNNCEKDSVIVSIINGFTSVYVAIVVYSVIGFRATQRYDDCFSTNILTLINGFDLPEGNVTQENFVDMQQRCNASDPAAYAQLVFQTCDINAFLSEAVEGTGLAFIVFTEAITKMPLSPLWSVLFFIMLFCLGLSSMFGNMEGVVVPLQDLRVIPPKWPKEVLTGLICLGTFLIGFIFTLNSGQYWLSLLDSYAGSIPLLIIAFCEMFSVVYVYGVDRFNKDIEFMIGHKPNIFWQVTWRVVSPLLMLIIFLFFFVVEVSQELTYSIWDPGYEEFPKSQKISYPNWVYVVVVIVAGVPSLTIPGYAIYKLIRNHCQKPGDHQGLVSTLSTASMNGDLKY
Summary of the method: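 Human BOAT1 stably expressed in CHO cells (75000 cells/well) in HEPES-buffered NaCl/KCl/CaCl2/MgCl2 buffer with 0.01% BSA, compound at 0.5% DMSO, preincubated ≥30 min at ordinary temperature. Uptake of L-phenylalanine plus [3H]-L-phenylalanine (0.25 mM final) read by scintillation proximity; 100–200 min values analysed, non-specific uptake defined with […] reference inhibitor.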

hERG channel = target: T2, hERG channel (Homo sapiens, UniProt Q12809); assay: hERG channel inhibitory activity, whole-cell patch clamp (auto-patch clamp system); type: cell-based; details: read-out: hERG IC50
T2 construct: host or cells: CHO cells
T2 sequence (Q12809 whole entry): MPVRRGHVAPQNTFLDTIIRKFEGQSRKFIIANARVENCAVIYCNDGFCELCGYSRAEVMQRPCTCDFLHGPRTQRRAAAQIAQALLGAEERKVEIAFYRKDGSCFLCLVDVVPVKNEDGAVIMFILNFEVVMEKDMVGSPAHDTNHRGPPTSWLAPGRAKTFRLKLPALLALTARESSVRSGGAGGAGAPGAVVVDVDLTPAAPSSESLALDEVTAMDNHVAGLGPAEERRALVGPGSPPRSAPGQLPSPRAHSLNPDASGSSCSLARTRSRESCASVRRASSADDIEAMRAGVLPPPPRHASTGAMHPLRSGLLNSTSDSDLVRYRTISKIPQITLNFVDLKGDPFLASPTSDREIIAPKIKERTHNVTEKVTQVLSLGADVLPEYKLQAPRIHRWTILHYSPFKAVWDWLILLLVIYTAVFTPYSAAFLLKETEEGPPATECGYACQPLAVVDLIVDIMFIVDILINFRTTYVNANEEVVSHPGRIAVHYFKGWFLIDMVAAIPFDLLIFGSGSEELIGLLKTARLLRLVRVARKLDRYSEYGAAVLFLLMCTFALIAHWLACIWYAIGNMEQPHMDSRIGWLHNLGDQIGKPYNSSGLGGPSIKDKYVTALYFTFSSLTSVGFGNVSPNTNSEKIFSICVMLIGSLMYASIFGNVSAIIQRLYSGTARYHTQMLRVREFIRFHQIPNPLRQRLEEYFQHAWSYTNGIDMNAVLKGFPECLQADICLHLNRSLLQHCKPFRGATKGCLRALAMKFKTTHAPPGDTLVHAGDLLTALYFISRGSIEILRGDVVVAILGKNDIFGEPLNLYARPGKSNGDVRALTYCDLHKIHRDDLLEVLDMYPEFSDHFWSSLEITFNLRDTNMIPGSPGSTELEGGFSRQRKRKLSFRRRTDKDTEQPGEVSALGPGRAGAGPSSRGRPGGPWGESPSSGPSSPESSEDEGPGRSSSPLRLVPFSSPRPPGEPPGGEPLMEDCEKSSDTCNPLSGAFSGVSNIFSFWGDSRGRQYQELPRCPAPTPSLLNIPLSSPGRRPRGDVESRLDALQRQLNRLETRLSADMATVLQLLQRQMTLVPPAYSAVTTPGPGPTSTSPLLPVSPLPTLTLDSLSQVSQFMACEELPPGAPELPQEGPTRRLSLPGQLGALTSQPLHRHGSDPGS
Protocol: Evaluation of hERG (Human Ether-a-go-go Related Gene) Channel Inhibitory Activity
The hERG channel inhibitory activity of the compound of the present invention was measured using CHO cells (B′ SYS GmbH) forcibly expressing hERG channels involved in human rapidly active delayed rectifier potassium current (IKr) by the whole-cell patch clamp method using an auto-patch clamp system (SyncroPatch384PE).
Cell suspension, extracellular fluid, intracellular fluid, and measurement plate (NPC-384 plate) were placed in the auto-patch clamp system, and hERG current measurements were performed using the whole-cell patch clamp method. The voltage protocol was set to a holding potential of −80 mV, with a depolarizing pulse preceded by −90 mV (100 ms) and followed by −80 mV (100 ms).
The depolarizing pulse was […] (500 ms), and then the hERG peak current value obtained during the ramp phase was measured when the voltage was lowered to −80 mV over 100 ms. The protocol was applied at 5-second intervals for 5 minutes for each concentration.
SyncroPatch software (manufactured by Nanion) was used for data analysis. Four concentrations were applied incrementally for each test substance, and the average hERG Peak current value obtained from the last three stimuli of each applied concentration was used as the evaluation data. The IC50 value was calculated from the inhibition rate of the current at each concentration of each test substance relative to the pre-application value using Hill's equation (Hill equation) using the relevant software.
The same experiments were also performed using the example compounds described in WO 2023/145804 as comparative example compounds 1-4.

Compound | IC50 (Human BOAT1) [nM] | IC50 (hERG channel) [nM]
O=C(O)Cc1cc(Cl)c2c(c1)CCN(C(=O)CNC(=O)/C=C/c1ccc(C(F)(F)F)cc1F)C2 [I-141] | 34 | > 30000
O=C(O)Cc1cc(F)c2c(c1)CCN(C(=O)CNC(=O)/C=C/c1ccc(C(F)(F)F)cc1)C2 [I-143] | 151 | > 30000
O=C(O)Cc1cc(Cl)c2c(c1)CCN(C(=O)CNC(=O)/C=C/c1ccc(C(F)(F)F)cc1)C2 [I-145] | 86 | > 30000
O=C(O)Cc1ccc2c(c1Cl)CCN(C(=O)CNC(=O)/C=C/c1ccc(C(F)(F)F)cc1)C2 [I-146] | 67 | 29900
N#Cc1cc(CC(=O)O)cc2c1CN(C(=O)CNC(=O)/C=C/c1ccc(C(F)(F)F)cc1F)CC2 [I-147] | 100 | > 30000
N#Cc1cc(CC(=O)O)cc2c1CN(C(=O)CNC(=O)/C=C/c1ccc(C(F)(F)F)cc1)CC2 [I-148] | 207 | > 30000
Cc1cc(CC(=O)O)cc2c1CN(C(=O)CNC(=O)/C=C/c1ccc(C(F)(F)F)cc1)CC2 [I-149] | 132 | > 30000
N#Cc1c(CC(=O)O)ccc2c1CCN(C(=O)CNC(=O)/C=C/c1ccc(C(F)(F)F)cc1)C2 [I-150] | 182 | 24900
N#Cc1c(CC(=O)O)ccc2c1CCN(C(=O)CNC(=O)/C=C/c1ccc(C(F)(F)F)cc1F)C2 [I-151] | 57 | > 30000
O=C(O)CCc1nn2c(c1Br)CN(C(=O)CNC(=O)/C=C/c1ccc(S(F)(F)(F)(F)F)cc1)CC2 [I-153] | 146 | > 30000
N#Cc1cc(CC(=O)O)cc2c1CN(C(=O)CNC(=O)/C=C/c1ccc(I)cc1F)CC2 [I-157] | 102 | > 30000
O=C(O)Cc1ccc2c(c1)CCN(C(=O)CNC(=O)/C=C/c1ccc(I)cc1F)C2 [I-158] | 83 | > 30000
O=C(O)Cc1ccc2c(c1F)CCN(C(=O)CNC(=O)/C=C/c1ccc(C(F)(F)F)cc1)C2 [I-162] | 141 | > 30000
O=C(/C=C/c1ccc(C(F)(F)F)cc1)NCC(=O)N1CCc2cc(N3CCC(C(=O)O)CC3)ncc2C1 [I-173] | 477 | > 30000
O=C(O)CCc1ccc2c(c1)CCN(C(=O)CNC(=O)/C=C/c1ccc(C(F)(F)F)cc1)C2 [I-174] | 149 | > 30000
O=C(O)Cc1cc2c(cc1F)CN(C(=O)CNC(=O)/C=C/c1ccc(C(F)(F)F)cc1)CC2 [I-180] | 122 | > 30000
O=C(O)Cc1ccc2c(c1)CCN(C(=O)CNC(=O)/C=C/c1ccc(C(F)(F)F)cc1)C2 [I-182] | 85 | > 30000
O=C(O)Cc1ccc2c(c1)CCN(C(=O)CNC(=O)/C=C/c1ccc(I)cc1)C2 [I-183] | 46 | > 30000
O=C(O)Cc1ccc2c(c1)CCN(C(=O)CNC(=O)/C=C/c1ccc(Br)cc1)C2 [I-184] | 127 | > 30000
O=C(O)Cc1ccc2c(c1)CCN(C(=O)CNC(=O)/C=C/c1ccc(Cl)cc1)C2 [I-185] | 168 | > 30000
O=C(O)Cc1ccc2c(c1)CCN(C(=O)CNC(=O)/C=C/c1ccc(Cl)cc1F)C2 [I-186] | 76 | > 30000
O=C(O)Cc1ccc2c(c1)CCN(C(=O)CNC(=O)/C=C/c1ccc(C(F)(F)F)cc1F)C2 [I-187] | 59 | > 30000

Compound | IC50 (Human BOAT1) [nM] | IC50 (hERG channel) [nM]
O=C(O)Cc1ccc2c(c1)CCN(C(=O)CNC(=O)/C=C/c1ccc(S(F)(F)(F)(F)F)cc1)C2 [I-190] | 102 | > 30000
O=C(O)COc1ccc2c(c1)CCN(C(=O)CNC(=O)/C=C/c1ccc(C(F)(F)F)cc1)C2 [I-191] | 104 | > 30000
O=C(O)COc1cccc2c1CCN2C(=O)CNC(=O)/C=C/c1ccc(C(F)(F)F)cc1 [I-194] | 74 | > 30000
CC(C)(Oc1cc(F)c2c(c1)CCN(C(=O)CNC(=O)/C=C/c1ccc(C(F)(F)F)cc1)C2)C(=O)O [I-195] | 186 | > 30000
C[C@@H]1CN(C(=O)CNC(=O)/C=C/c2ccc(C(F)(F)F)cc2F)[C@@H](C)CN1CCCC(=O)O [I-197] | 2400 | > 30000
C[C@@H]1CN(C(=O)CNC(=O)/C=C/c2ccc(C(F)(F)F)cc2F)[C@H](C)CN1CCCC(=O)O [I-199] | 370 | > 30000
O=C(O)Cc1nc2c(s1)CCN(C(=O)CNC(=O)/C=C/c1ccc(C(F)(F)F)cc1)C2 [I-201] | 54 | > 30000
O=C(O)Cc1nc2c(s1)CN(C(=O)CNC(=O)/C=C/c1ccc(C(F)(F)F)cc1)CC2 [I-202] | 149 | > 30000
O=C(O)CCCN1CCN(C(=O)CNC(=O)/C=C/c2ccc(C(F)(F)F)cc2)C(c2ccccc2)C1 (centres unmarked) [I-204] | 246 | > 30000
O=C(O)Cc1cc(F)c2c(c1)CCN(C(=O)CNC(=O)/C=C/c1ccc(C(F)(F)F)cc1F)C2 [I-205] | 99 | > 30000
O=C(O)CSc1nc2c(s1)CN(C(=O)CNC(=O)/C=C/c1ccc(C(F)(F)F)cc1F)CC2 [I-214] | 91 | > 30000
O=C(O)CSc1nc2c(s1)CN(C(=O)CNC(=O)/C=C/c1ccc(C(F)(F)F)cc1)CC2 [I-215] | 165 | > 30000
N#Cc1cc2c(cc1CC(=O)O)CCN(C(=O)CNC(=O)/C=C/c1ccc(I)cc1F)C2 [I-223] | 86 | 28500
N#Cc1cc2c(cc1CC(=O)O)CCN(C(=O)CNC(=O)/C=C/c1ccc(C(F)(F)F)cc1F)C2 [I-224] | 110 | > 30000
N#Cc1cc2c(cc1CC(=O)O)CCN(C(=O)CNC(=O)/C=C/c1ccc(C(F)(F)F)cc1F)C2 [I-225] | 295 | 26200
O=C(O)Cc1cc2c(cc1Cl)CN(C(=O)CNC(=O)/C=C/c1ccc(C(F)(F)F)cc1)CC2 [I-226] | 101 | > 30000
CC1CN(C(=O)CNC(=O)/C=C/c2ccc(C(F)(F)F)cc2F)CCN1CCCC(=O)O (centres unmarked) [I-231] | 234 | > 30000
O=C(O)CCCN1CCN(C(=O)CNC(=O)/C=C/c2ccc(C(F)(F)F)cc2F)[C@@H](c2ccc(Br)cc2)C1 [I-232] | 30 | 19300
O=C(O)CCCN1CCN(C(=O)CNC(=O)/C=C/c2ccc(C(F)(F)F)cc2F)C(c2ccccc2Cl)C1 (centres unmarked) [I-233] | 609 | > 30000
O=C(O)CCCN1CCN(C(=O)CNC(=O)/C=C/c2ccc(C(F)(F)F)cc2F)C(c2ccc(F)cc2)C1 (centres unmarked) [I-237] | 199 | > 30000
O=C(O)CCCN1CCN(C(=O)CNC(=O)/C=C/c2ccc(C(F)(F)F)cc2F)C(c2cccc(Cl)c2)C1 (centres unmarked) [I-238] | 97 | > 30000
